Data from paper PMC9468336, “The choanoflagellate pore-forming lectin SaroL-1 punches holes in cancer cells by targeting the tumor-related glycosphingolipid Gb3” (Communications Biology, 2022).
Where two headings read alike, the source gives them in different places.

T1: hemolytic activity of SaroL-1 on rabbit erythrocytes (Salpingoeca rosetta, UniProt F2UID9)
T1 sequence (F2UID9 1-329): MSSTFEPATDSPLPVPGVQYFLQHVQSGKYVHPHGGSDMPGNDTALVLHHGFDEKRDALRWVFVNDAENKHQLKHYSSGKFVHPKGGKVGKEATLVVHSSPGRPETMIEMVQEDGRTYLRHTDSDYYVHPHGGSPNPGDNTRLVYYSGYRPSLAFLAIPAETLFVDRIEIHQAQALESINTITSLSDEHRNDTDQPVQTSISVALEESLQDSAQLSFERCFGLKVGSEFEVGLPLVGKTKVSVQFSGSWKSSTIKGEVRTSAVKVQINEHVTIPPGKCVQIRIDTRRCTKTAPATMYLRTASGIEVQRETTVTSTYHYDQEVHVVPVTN


Legend:
[1] = biological target: T1, hemolytic activity of SaroL-1 on rabbit erythrocytes; experiment: Inhibition of hemolytic activity (IHA) of SaroL-1 by carbohydrates; type: cell-based; details: for inhibition: SaroL-1 217 nM, read-out: Mean % inhibition of hemolysis
Protocol: Both HA and IHA assays were performed in U-shaped 96-well microtiter plates. In both cases, a control negative experiment was performed with Buffer A added to erythrocyte solution (2% final concentration), and the resulting value was subtracted from all data.
IHA was performed in U-shaped 96-well microtiter plates. […] 4% rabbit erythrocytes were added to the mixture in a 1:1 ratio and incubated for 1–2 h at 37 °C. The samples were centrifuged, 2600 × g for 15 min at RT, and the absorbance of the supernatant was measured at 540 nm by a Tecan reader.

[2] = Confocal imaging of SaroL-1 binding to lactosylceramide GUVs; details: 200 nM labelled SaroL-1, Lac-cer GUVs
Source text: GUVs were composed of 1,2-dioleoyl-sn-glycero-3-phosphocholine (DOPC), cholesterol (both AvantiPolar Lipids, United States), Atto 647 N 1,2-dioleoyl-sn-glycero-3-phosphoethanolamine (DOPE; Sigma-Aldrich), and one of the following glycolipids at a molar ratio of 64.7:30:0.3:5. The glycolipids are globotriaosylceramide (Gb3, Matreya), FSL-Gb3 (Function-Spacer-Lipid with globotriaosyl saccharide), and corresponding FSL-isoGb3 (Function-Spacer-Lipid with iso-globotriaosyl saccharide) synthetized as previously described[84],[85], FSL-A(tri) (Function-Spacer-Lipid with blood group A trisaccharide; Sigma-Aldrich), FSL-B(tri) (Function-Spacer-Lipid with blood group B trisaccharide; Sigma-Aldrich) or lactosylceramide (LC, Sigma-Aldrich).
GUVs were prepared by the electroformation method as earlier described. Briefly, lipids dissolved in chloroform of a total concentration of 0.5 mg/mL were spread on indium tin oxid-covered (ITO) glass slides and dried in a vacuum for at least 1 h or overnight. […]
Samples of GUVs and SaroL-1 were imaged using a confocal fluorescence microscope (Nikon Eclipse Ti-E inverted microscope equipped with Nikon A1R confocal laser scanning system, 60x oil immersion objective, NA = 1.49 and four laser lines: 405 nm, 488 nm, 561 nm, and 640 nm). […]

Molecule | inhibition of hemolysis (in words) ([1]; 10 mM carbohydrate) | inhibition ([1]; sugar 0.003 mM) | inhibition ([1]; sugar 0.006 mM) | inhibition ([1]; sugar 0.0125 mM) | inhibition ([1]; sugar 0.025 mM) | inhibition ([1]; sugar 0.05 mM) | inhibition ([1]; sugar 0.1 mM) | inhibition ([1]; sugar 0.2 mM) | inhibition ([1]; sugar 0.4 mM) | inhibition ([1]; sugar 0.8 mM) | inhibition ([1]; sugar 1.6 mM) | inhibition ([1]; sugar 3.125 mM) | inhibition ([1]; sugar 6.25 mM) | inhibition ([1]; sugar 12.5 mM) | inhibition ([1]; sugar 25 mM) | inhibition ([1]; sugar 50 mM) | binding to GUVs [2]
O=[N+]([O-])c1ccc(O[C@H]2O[C@H](CO)[C@H](O)[C@H](O)[C@H]2O)cc1 [PNPG, p-nitrophenyl-α-D-galactopyranoside] | complete inhibition | 8.15% | 10.7% | 12.1% | 9.06% | 3.85% | 3.39% | 1.44% | 2.69% | 8.59% | 24.5% | 55.9% | 90.5% | 100% | 100% | 100% | –
SaroL-1: Recombinant pore-forming lectin of Salpingoeca rosetta (UniProt F2UID9, 329 amino acids) with β-trefoil and aerolysin-like domains (protein, left off: His6, N-terminal, state not stated, Recombinant pore-forming lectin of Salpingoeca rosetta (UniProt F2UID9, 329 amino acids) with β-trefoil and aerolysin-like domains) MSSTFEPATDSPLPVPGVQYFLQHVQSGKYVHPHGGSDMPGNDTALVLHHGFDEKRDALRWVFVNDAENKHQLKHYSSGKFVHPKGGKVGKEATLVVHSSPGRPETMIEMVQEDGRTYLRHTDSDYYVHPHGGSPNPGDNTRLVYYSGYRPSLAFLAIPAETLFVDRIEIHQAQALESINTITSLSDEHRNDTDQPVQTSISVALEESLQDSAQLSFERCFGLKVGSEFEVGLPLVGKTKVSVQFSGSWKSSTIKGEVRTSAVKVQINEHVTIPPGKCVQIRIDTRRCTKTAPATMYLRTASGIEVQRETTVTSTYHYDQEVHVVPVTN | – | – | – | – | – | – | – | – | – | – | – | – | – | – | – | – | very weak binding
